Each structure is given as a SMILES string.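 48-hour exposure; five concentrations; linearly interpolated endpoints. Here, GI50 denotes the concentration required for 50% inhibition of growth.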 Activity calls are given as the source filed them. Cut-off read from the data, not from the text of the source: active = GI50 up to about 1.1 µM and inactive = higher.

Some test systems named below: CCRF-CEM; MOLT-4; HCT-15; HL-60; SF-295; SNB-19; OVCAR-4; 786-0; SNB-75; K562; UACC-257; COLO 205; NCI-H226; SK-MEL-2; CAKI-1; TK-10; M14.
Common to all, as to assay: NCI tumour cell line growth inhibition, 48 h

Regarding `CNS(=O)(=O)NN(C)S(=O)(=O)c1ccc(Br)cc1`, the GI50 in the assay with CCRF-CEM is > 100 µM (inactive); in the assay with MOLT-4, > 100 µM (inactive); with HCT-15 it was more than 100 µM; in the assay on HL-60, > 100 µM (inactive); in the assay on SF-295 it was > 100 µM (inactive); in the assay with SNB-19, > 100 µM (inactive). Moreover, the GI50 with OVCAR-4, with 786-0, in the assay on SNB-75, in the assay with K562, with UACC-257 and in the assay with COLO 205 was > 100 µM (inactive) each time. The GI50 with NCI-H226, in the assay with SK-MEL-2, in the assay with CAKI-1, with TK-10 and in the assay with M14 was > 100 µM (inactive) each time.
Take `Cc1c(/C=N/NC(=O)c2cc(Br)cc(Br)c2O)c(=O)n(-c2ccccc2)n1C`: the GI50 in the assay on CCRF-CEM is 23.3 µM (inactive); with MOLT-4 it was 56.1 µM (inactive); with HCT-15 it was 39.1 µM; in the assay with HL-60, 2.49 µM (inactive); in the assay with SF-295 it was > 100 µM (inactive); with SNB-19, > 100 µM (inactive). The GI50 in the assay on OVCAR-4 is > 100 µM (inactive); in the assay with 786-0, 92 µM (inactive); in the assay with SNB-75, > 100 µM (inactive); in the assay with K562 it was 51.4 µM (inactive); in the assay on UACC-257, 35.3 µM (inactive); in the assay with COLO 205 it was 61.2 µM (inactive). Further, the GI50 with NCI-H226 is 90.6 µM (inactive); in the assay on SK-MEL-2 it was > 100 µM (inactive); in the assay with CAKI-1, 25.2 µM (inactive); in the assay on TK-10, 69.8 µM (inactive); in the assay with M14, 36.9 µM (inactive).
Turning to `O=C(CC1C(=O)Nc2ccccc2S1(=O)=O)Nc1cccc(Cl)c1` (centres undefined), the GI50 in the assay on CCRF-CEM was 22.3 µM (inactive); in the assay with MOLT-4 it was 11.9 µM (inactive); in the assay with HCT-15 it was 15.5 µM; in the assay on HL-60, 18.5 µM (inactive); with SF-295, 24.7 µM (inactive); with SNB-19, 19.4 µM (inactive). The GI50 in the assay on OVCAR-4 was 20.1 µM (inactive); with 786-0 it was 14.1 µM (inactive); in the assay on SNB-75, 16.8 µM (inactive); with K562, 17.8 µM (inactive); with UACC-257, 19.8 µM (inactive); in the assay on NCI-H226, 17.3 µM (inactive). Further, the GI50 in the assay with SK-MEL-2 was 27.1 µM (inactive); in the assay on CAKI-1 it was 21.1 µM (inactive); with TK-10 it was 22.3 µM (inactive); with M14, 18.8 µM (inactive).
`NC(CCc1ncc(-c2ccccc2)s1)C(=O)O` (centres undefined): the GI50 in the assay with CCRF-CEM is > 100 µM (inactive); with MOLT-4 it was > 100 µM (inactive); in the assay on HCT-15, more than 100 µM; in the assay on HL-60, > 100 µM (inactive); in the assay on SF-295, > 100 µM (inactive); in the assay with SNB-19, > 100 µM (inactive). For the same compound, the GI50 is > 100 µM (inactive) in the assay on 786-0; 85.9 µM (inactive) in the assay on SNB-75; > 100 µM (inactive) in the assay with K562; > 100 µM (inactive) in the assay on UACC-257; > 100 µM (inactive) in the assay with COLO 205; 17.4 µM (inactive) in the assay on NCI-H226. Besides, the GI50 in the assay with CAKI-1, in the assay on TK-10 and in the assay with M14 was > 100 µM (inactive) in each case.
Turning to `Cc1c(C(=O)CSc2nc3cc([N+](=O)[O-])ccc3[nH]2)c(=O)n(-c2ccccc2)n1C`, the GI50 with CCRF-CEM was > 100 µM (inactive); in the assay with MOLT-4, > 100 µM (inactive); with HCT-15, more than 100 µM; in the assay on HL-60 it was > 100 µM (inactive); in the assay with SF-295, > 100 µM (inactive); in the assay with SNB-19, > 100 µM (inactive). Also, the GI50 with OVCAR-4, in the assay on 786-0, with SNB-75, in the assay with UACC-257, with COLO 205 and in the assay on NCI-H226 was > 100 µM (inactive) in each case. The GI50 in the assay with SK-MEL-2, with CAKI-1, with TK-10 and in the assay on M14 was > 100 µM (inactive) each time.
As for `Cc1c(N2CCOCC2)nc2ccc(Cl)cc2c1-c1ccccc1`, the GI50 with CCRF-CEM was 26.7 µM (inactive); in the assay on MOLT-4 it was 21.8 µM (inactive); in the assay on HCT-15 it was 42.6 µM; with HL-60, 34 µM (inactive); with SF-295, > 100 µM (inactive); with SNB-19 it was > 100 µM (inactive). In addition, the GI50 is 50.7 µM (inactive) in the assay on OVCAR-4; 95.9 µM (inactive) in the assay on 786-0; 31.4 µM (inactive) with SNB-75; 31.6 µM (inactive) in the assay with K562; > 100 µM (inactive) in the assay on UACC-257; > 100 µM (inactive) in the assay on COLO 205. In addition, the GI50 with SK-MEL-2 was > 100 µM (inactive); in the assay with CAKI-1, 76.4 µM (inactive); in the assay with TK-10 it was > 100 µM (inactive); in the assay with M14, > 100 µM (inactive).
As for `COC(=O)/C(C#N)=C(\N)C(Cl)(Cl)Cl`, the GI50 in the assay with CCRF-CEM is 0.338 µM (active); in the assay with MOLT-4 it was 0.379 µM (active); in the assay with HCT-15, 2.2 µM; in the assay on HL-60, 0.319 µM (active); in the assay on SF-295, 5.09 µM (inactive); in the assay on SNB-19 it was 40.8 µM (inactive). Further, the GI50 with OVCAR-4 is 2.67 µM (inactive); in the assay with 786-0 it was 4.11 µM (inactive); with SNB-75 it was 3.85 µM (inactive); in the assay with K562, 0.442 µM (active); in the assay on UACC-257 it was 3.08 µM (inactive); with COLO 205, 2.32 µM (inactive). In addition, the GI50 in the assay on SK-MEL-2 was 5.53 µM (inactive); in the assay on CAKI-1, 5.4 µM (inactive); in the assay with TK-10, 2.55 µM (inactive); with M14 it was 1.43 µM (inactive).
On to `CCCN1CN(C(C(=O)N[C@@H]2C(=O)N3C2SC(C)(C)C3C(=O)O)c2ccccc2)CSC1=S` (some centres undefined), for which the GI50 with CCRF-CEM was 95.9 µM (inactive); with MOLT-4, > 100 µM (inactive); in the assay on HCT-15 it was 80.5 µM; in the assay on HL-60 it was 48 µM (inactive); in the assay with SF-295, > 100 µM (inactive); with SNB-19 it was > 100 µM (inactive). The GI50 in the assay with OVCAR-4 is > 100 µM (inactive); with 786-0 it was > 100 µM (inactive); with SNB-75 it was > 100 µM (inactive); in the assay on K562, 41.6 µM (inactive); with UACC-257, > 100 µM (inactive); in the assay on COLO 205 it was 23.6 µM (inactive). The GI50 in the assay on SK-MEL-2, with CAKI-1, in the assay with TK-10 and in the assay with M14 was > 100 µM (inactive) in each case.
Regarding `CCOC(=O)N[C@@H]1C(CC(=O)OC)O[C@H]2OC(C)(C)O[C@H]21` (some centres undefined), the GI50 was > 100 µM (inactive) in the assay with CCRF-CEM; > 100 µM (inactive) in the assay on MOLT-4; more than 100 µM in the assay with HCT-15; > 100 µM (inactive) in the assay with HL-60; > 100 µM (inactive) in the assay on SF-295; > 100 µM (inactive) in the assay with OVCAR-4. Besides, the GI50 in the assay on 786-0, in the assay on SNB-75, in the assay with K562, in the assay on UACC-257, with COLO 205 and with NCI-H226 was > 100 µM (inactive) throughout. Also, the GI50 in the assay on SK-MEL-2, in the assay with CAKI-1 and with M14 was > 100 µM (inactive) each time.

The values above are taken from ChEMBL document CHEMBL1201862, “PubChem BioAssay data set” (2004).
